Measurements from patent US20260085053A1, “BENZOFURAN DERIVATIVES AS SIK INHIBITORS AND THE USE THEREOF” (BEONE MEDICINES I GMBH, priority 2023, published 2026).

How the values were obtained:
[1] = biological target: T1, SIK2 kinase (full length, Thermo Fisher) (Homo sapiens, UniProt Q9H0K1); test: Biochemical activities determination for SIK2 protein (TR-FRET); details: 80 uM ATP, 0.5 μM substrate
T1 construct: SIK2 kinase (full length, Thermo Fisher); purchased Thermo Fisher
Description: 2. Biochemical Activities Determination for SIK2 Protein
(§1) Compounds were tested for inhibition of SIK2 kinase (full length, Thermo Fisher) in assays based on the time-resolved fluorescence-resonance energy transfer (TR-FRET) methodology. The assays were carried out in 384-well low volume white plates in a reaction mixture containing SIK2 kinase, 80 uM ATP, 0.5 μM SIK1 substrate and 0-10 μM compound in buffer containing 25 mM Tris, 0.01% Trition X-100, 0.5 mM EGTA, 5 mM MgCl2, 2.5 mM DTT, pH=7.5. The kinase was incubated with compounds for 60 minutes at room temperature and the reaction was initiated by the addition of ATP and STK1 substrate. After reaction at room temperature for 180 minutes, an equal volume of stop/detection solution was added according to the manufacture's instruction (CisBio Bioassays). The stop/detection solution contained STK Antibody-Cryptate and XL665-conjugated streptavidin (Cat: 62ST1PEC, Cisbio) in Detection Buffer (Cat: 62SDBRDF, Cisbio). Plates were sealed and incubated at room temperature for overnight, and the TR-FRET signals (ratio of fluorescence emission at 665 nm over emission at 620 nm with excitation at 337 nm wavelength) were recorded on a PHERAstar FS plate reader (BMG Labtech). Phosphorylation of STK1 substrate led to the binding of STK Antibody-Cryptate to the biotinylated STK1 substrate, which places fluorescent donor (Eu^3+ crypate) in close proximity to the accepter (Streptavidin-XL665), thus resulting in a high degree of fluorescence resonance energy transfer from the donor fluorophore (at 620 nm) to the acceptor fluorophore (at 665 nm). […] The IC50 for each compound was derived from fitting the data to the four-parameter logistic equation by Dotmatics.

[2] = biological target: T2, SIK1 kinase (aa1-303, Thermo Fisher) (Homo sapiens, UniProt P57059); test: Biochemical activities determination for SIK1 protein (TR-FRET); details: 110 uM ATP, 0.5 μM STK1 substrate
T2 construct: SIK1 kinase (aa1-303, Thermo Fisher); purchased Thermo Fisher
T2 sequence (P57059 1-303): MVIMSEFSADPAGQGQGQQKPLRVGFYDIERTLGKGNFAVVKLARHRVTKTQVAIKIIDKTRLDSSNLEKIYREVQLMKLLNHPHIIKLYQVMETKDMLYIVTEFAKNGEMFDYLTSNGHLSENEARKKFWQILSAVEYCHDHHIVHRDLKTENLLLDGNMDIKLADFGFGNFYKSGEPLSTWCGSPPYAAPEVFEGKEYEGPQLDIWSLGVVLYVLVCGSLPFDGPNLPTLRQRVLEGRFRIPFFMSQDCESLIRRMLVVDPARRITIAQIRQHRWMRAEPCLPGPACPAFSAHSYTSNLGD
Description: 1. Biochemical Activities Determination for SIK1 Protein
as §1, with “of SIK1” for “of SIK2”, “kinase (aa1-303,” for “kinase (full length,”, “containing SIK1” for “containing SIK2”, “kinase, 110” for “kinase, 80”, “μM STK1” for “μM SIK1”, “biotinylated […]” for “biotinylated STK1”

[3] = biological target: T3, SIK3 kinase (aa59-365, Thermo Fisher) (Homo sapiens, UniProt Q9Y2K2); test: Biochemical activities determination for SIK3 protein (TR-FRET); details: 125 uM ATP, 0.5 μM STK1 substrate
T3 construct: SIK3 kinase (aa59-365, Thermo Fisher); purchased Thermo Fisher
T3 sequence (Q9Y2K2 59-365): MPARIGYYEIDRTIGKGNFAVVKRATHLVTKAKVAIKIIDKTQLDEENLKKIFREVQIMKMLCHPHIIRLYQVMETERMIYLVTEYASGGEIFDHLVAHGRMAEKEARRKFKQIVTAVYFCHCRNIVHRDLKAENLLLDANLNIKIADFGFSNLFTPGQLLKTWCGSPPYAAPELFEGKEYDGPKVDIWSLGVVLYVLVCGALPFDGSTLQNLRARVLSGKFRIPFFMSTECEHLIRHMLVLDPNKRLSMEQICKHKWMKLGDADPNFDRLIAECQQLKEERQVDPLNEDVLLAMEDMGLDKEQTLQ
Description: 3. Biochemical Activities Determination for SIK3 Protein
Compounds were tested for inhibition of SIK3 kinase (aa59-365, Thermo Fisher) in assays based on the time-resolved fluorescence-resonance energy transfer (TR-FRET) methodology. The assays were carried out in 384-well low volume white plates in a reaction mixture containing SIK3 kinase, 125 uM ATP, 0.5 μM STK1 substrate and 0-10 μM compound in buffer containing 25 mM Tris, 0.01% Trition X-100, 0.5 mM EGTA, 5 mM MgCl2, 2.5 mM DTT, PH=7.5. The kinase was incubated with compound for 60 minutes at room temperature and the reaction was initiated by the addition of ATP and STK1 substrate. After reaction at room temperature for 180 minutes, an equal volume of stop/detection solution was added according to the manufacture's instruction (CisBio Bioassays). The stop/detection solution contained STK Antibody-Cryptate and XL665-conjugated streptavidin (Cat: 62ST1PEC, Cisbio) in Detection Buffer (Cat: 62SDBRDF, Cisbio). Plates were sealed and incubated at room temperature for overnight, and the TR-FRET signals (ratio of fluorescence emission at 665 nm over emission at 620 nm with excitation at 337 nm wavelength) were recorded on a PHERAstar FS plate reader (BMG Labtech). Phosphorylation of STK1 substrate led to the binding of STK Antibody-Cryptate to the biotinylated STK1 substrate, which places fluorescent donor (Eu^3+ crypate) in close proximity to the accepter (Streptavidin-XL665), thus resulting in a high degree of fluorescence resonance energy transfer from the donor fluorophore (at 620 nm) to the acceptor fluorophore (at 665 nm). […] The IC50 for each compound was derived from fitting the data to the four-parameter logistic equation by Dotmatics.

T1 sequence (Q9H0K1 whole entry): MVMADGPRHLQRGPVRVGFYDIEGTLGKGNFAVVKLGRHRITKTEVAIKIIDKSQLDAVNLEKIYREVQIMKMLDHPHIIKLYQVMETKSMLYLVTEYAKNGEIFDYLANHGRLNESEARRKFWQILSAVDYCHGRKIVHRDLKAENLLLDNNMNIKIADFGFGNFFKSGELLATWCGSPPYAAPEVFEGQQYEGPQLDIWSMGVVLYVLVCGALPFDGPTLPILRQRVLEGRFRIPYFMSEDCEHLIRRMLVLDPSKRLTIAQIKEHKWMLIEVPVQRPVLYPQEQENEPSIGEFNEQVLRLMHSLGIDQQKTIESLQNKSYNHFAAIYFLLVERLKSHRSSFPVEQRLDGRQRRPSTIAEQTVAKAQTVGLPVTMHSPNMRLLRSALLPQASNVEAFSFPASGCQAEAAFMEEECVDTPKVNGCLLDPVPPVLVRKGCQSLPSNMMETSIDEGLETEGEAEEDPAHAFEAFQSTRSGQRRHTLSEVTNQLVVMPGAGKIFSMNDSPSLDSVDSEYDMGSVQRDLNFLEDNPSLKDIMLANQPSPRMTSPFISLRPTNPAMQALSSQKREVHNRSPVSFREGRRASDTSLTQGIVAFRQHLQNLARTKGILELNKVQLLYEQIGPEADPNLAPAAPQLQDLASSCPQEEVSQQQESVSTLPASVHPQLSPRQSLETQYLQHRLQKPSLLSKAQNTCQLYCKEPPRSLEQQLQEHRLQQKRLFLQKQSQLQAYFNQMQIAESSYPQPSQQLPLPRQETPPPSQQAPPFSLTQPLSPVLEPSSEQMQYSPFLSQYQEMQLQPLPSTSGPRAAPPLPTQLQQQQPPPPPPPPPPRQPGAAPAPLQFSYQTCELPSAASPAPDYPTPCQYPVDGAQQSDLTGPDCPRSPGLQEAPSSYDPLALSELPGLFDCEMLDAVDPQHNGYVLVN

SMILES | IC50 [1] [nM] | IC50 [2] [nM] | IC50 [3] [nM]
NC1CCN(c2cccc3ccc(-c4coc5cc(OCCN6CCOCC6)ccc45)nc23)CC1 [Compound 134, 1-(2-(6-(2-morpholinoethoxy)benzofuran-3-yl)quinolin-8-yl) piperidin-4-amine] | 66 | 958 | 156
COc1cc(-c2coc3cc(OCc4cncn4C)ccc23)cc2c1C(=O)N(CC(F)(F)F)CC2 [Compound 60, 8-methoxy-6-(6-((1-methyl-1H-imidazol-5-yl)methoxy)benzofuran-3-yl)-2-(2,2,2-trifluoroethyl)-3,4-dihydroisoquinolin-1 (2H)-one] | 635 | > 10000 | 421
NC1CC(Oc2cc(-c3coc4cc(OCCN5CCCC5)ccc34)cc(OC(F)F)c2C(=O)NC2CC2)C1 (stereo not drawn) [Compound 109, 2-(3-aminocyclobutoxy)-N-cyclopropyl-6-(difluoromethoxy)-4-(6-(2-(pyrrolidin-1-yl)ethoxy)benzofuran-3-yl)benzamide] | 329 | > 10000 | 2520
COc1cc(-c2coc3cc(OCCN4CC[C@H](C(C)C)C4)ccc23)cc(OC(F)F)c1C(=O)N[C@@H]1C[C@@H]1F [Compound 90, 2-(difluoromethoxy)-N-((1R,2S)-2-fluorocyclopropyl)-4-(6-(2-((R)-3-isopropylpyrrolidin-1-yl)ethoxy)benzofuran-3-yl)-6-methoxybenzamide] | 13 | 2350 | 33
O=C(NC1CC1)c1c(OC(F)F)cc(-c2coc3cc(OCCN4CCCC4)ccc23)cc1O[C@H]1CC[C@@H](O)CC1 [Compound 102, N-cyclopropyl-2-(difluoromethoxy)-6-(((1s,4s)-4-hydroxycyclohexyl)oxy)-4-(6-(2-(pyrrolidin-1-yl)ethoxy)benzofuran-3-yl)benzamide] | 2480 | > 10000 | > 10000
COc1cc(-c2coc3cc(-c4cnn(C5CN(CCC#N)C5)c4)ccc23)cc2c1C(=O)N(CC(F)(F)F)CC2 [Compound 54, 3-(3-(4-(3-(8-methoxy-1-oxo-2-(2,2,2-trifluoroethyl)-1,2,3,4-tetrahydroisoquinolin-6-yl)benzofuran-6-yl)-1H-pyrazol-1-yl)azetidin-1-yl) propanenitrile] | 6.9 | 326 | 19
O=C(NC1CC1)c1c(F)cc(-c2coc3cc(OCCN4CCCC4)ccc23)cc1OC(F)F [Compound 105, N-cyclopropyl-2-(difluoromethoxy)-6-fluoro-4-(6-(2-(pyrrolidin-1-yl)ethoxy)benzofuran-3-yl)benzamide] | 398 | > 10000 | 1770
COc1cc(-c2coc3cc(OCCN4CCCC4)ccc23)cc2c1C(=O)N(CC(F)(F)F)CC2 [Compound 59, 8-methoxy-6-(6-(2-(pyrrolidin-1-yl)ethoxy)benzofuran-3-yl)-2-(2,2,2-trifluoroethyl)-3,4-dihydroisoquinolin-1 (2H)-one] | 77 | > 10000 | 348

The remaining lines, values ahead:

IC50 [1] [nM] | IC50 [2] [nM] | IC50 [3] [nM] | SMILES
11 | 524 | 63 | O=C1c2c(cc(-c3coc4cc(-c5cnn(C6CCNC6)c5)ccc34)cc2OC(F)F)CCN1CC(F)(F)F (stereo not drawn) [Compound 48, 8-(difluoromethoxy)-6-(6-(1-(pyrrolidin-3-yl)-1H-pyrazol-4-yl)benzofuran-3-yl)-2-(2,2,2-trifluoroethyl)-3,4-dihydroisoquinolin-1 (2H)-one]
19 | 1890 | 42 | COc1cc(-c2coc3cc(OCCN4CC[C@@H](C)C4)ccc23)cc(OC(F)F)c1C(=O)N[C@@H]1C[C@@H]1F [Compound 78, 2-(difluoromethoxy)-N-((1R,2S)-2-fluorocyclopropyl)-6-methoxy-4-(6-(2-((R)-3-methylpyrrolidin-1-yl)ethoxy)benzofuran-3-yl)benzamide]
76 | > 10000 | 122 | COc1cc(-c2coc3cc(OCCN4CCCC4)ccc23)cc(OC(F)F)c1C(=O)NC1CC1 [Compound 62, N-cyclopropyl-2-(difluoromethoxy)-6-methoxy-4-(6-(2-(pyrrolidin-1-yl)ethoxy)benzofuran-3-yl)benzamide]
132 | 2080 | 255 | COc1cc(-c2coc3cc(-c4cnn(C)c4)ccc23)cc(OC)c1-c1nnc(C2CC2)o1 [Compound 35, 2-cyclopropyl-5-(2,6-dimethoxy-4-(6-(1-methyl-1H-pyrazol-4-yl)benzofuran-3-yl)phenyl)-1,3,4-oxadiazole]
23 | 2450 | 79 | COc1cc(-c2coc3cc(OCCN4CCCC4)ccc23)cc(OC(F)F)c1C(=O)N[C@@H]1C[C@@H]1F [Compound 67, 2-(difluoromethoxy)-N-((1R,2S)-2-fluorocyclopropyl)-6-methoxy-4-(6-(2-(pyrrolidin-1-yl)ethoxy)benzofuran-3-yl)benzamide]
11 | 337 | 25 | COc1cc(-c2coc3cc(-c4cnn(C5CCOC5)c4)ccc23)cc2c1C(=O)N(CC(F)(F)F)CC2 (stereo not drawn) [Compound 49, 8-methoxy-6-(6-(1-(tetrahydrofuran-3-yl)-1H-pyrazol-4-yl)benzofuran-3-yl)-2-(2,2,2-trifluoroethyl)-3,4-dihydroisoquinolin-1 (2H)-one]
15 | 195 | 26 | COc1cc(-c2coc3cc(-c4cnn(C)c4)ccc23)cc(OC(F)F)c1C(=O)NCC(F)(F)F [Compound 25, 2-(difluoromethoxy)-6-methoxy-4-(6-(1-methyl-1H-pyrazol-4-yl)benzofuran-3-yl)-N-(2,2,2-trifluoroethyl)benzamide]
12 | 362 | 14 | COc1cc(-c2coc3cc(-c4cnn(C)c4)ccc23)cc2c1C(=O)N(CC#N)CC2 [Compound 20, 2-(8-methoxy-6-(6-(1-methyl-1H-pyrazol-4-yl)benzofuran-3-yl)-1-oxo-3,4-dihydroisoquinolin-2 (1H)-yl) acetonitrile]
